Measured values taken from US9629830B2, “EphA4 inhibitors as neuroprotective agents” (The Hong Kong University of Science and Technology, priority 2013, dated 2017).
Entries after “also recorded” stand apart in the source; their conditions may differ.

Tests used:
[1] = molecular target: T1, extracellular domain of EphA4 (Homo sapiens, UniProt P54764); test: In vitro pull-down of recombinant EphA4-Fc with biotinylated Rhy on streptavidin beads; format: binding; conditions: western blot
T1 construct: purchased R&D Systems
Experimental: For the pull-down analysis, Bio-Rhy was bound to streptavidin magnetic beads for 1 h, the beads was then incubated with recombinant EphA4-Fc or EphB2-Fc in the presence of 0.5% BSA for 1 h. After incubation, the beads were washed 4 times with DPBS and the presence of Eph in the complex was determined by western blot analysis.

EphA4 (HT-22 cells) = molecular target: T2, EphA4 (HT-22 cells) (Mus musculus, UniProt Q03137); test: Cell-based binding of biotinylated ephrin-A1 to the surface of HT-22 cells; conditions: 10 min pre-incubation; Rhy 300 μM, KYL 100 μM (FIG. 10); biotinylated ephrin-A1 0.5 μg/mL
T2 construct: HT-22 cells, a cell line that expresses EphA4; endogenous in cells; host or cells: HT-22 cells
Experimental: HT-22 cells were seeded on poly-D-lysine coverslips. […] The cells were then fixed with 4% paraformaldehyde and then immunostained with Alexa Fluor 488-conjugated Streptavidin antibody (Molecular Probes) for surfacing labeling of biotinylated ephrin-A1.

[2] = tested on: EphA4-dependent growth cone collapse in hippocampal neurons; test: EphA4-dependent (ephrin-A1-stimulated) growth cone collapse assay; format: cell-based, rat; conditions: cultured hippocampal neurons
Experimental: Ephrin-A1-Fc was pre-clustered with goat anti-human Fc antibody (1:4.5)^24 and incubated at room temperature for 60 min before use. The growth cone collapse assay was performed in hippocampal neurons with ephrin-A1 0.1 μg/mL as described previously^61.
For EphA4 clustering, neurons were stained with anti-EphA4 and anti-Tau-1 antibodies. For the growth cone collapse assay, neurons were stained with Alexa Fluor 555-conjugated phalloidin (Molecular Probes) for filamentous actin and anti-Tau-1 antibody for axons. Collapsed growth cones were scored in a double-blinded manner. The experiments were repeated at least 3 times, and >50 neurons were analyzed for each experiment. Data are presented as mean±SEM.
To screen for small molecule EphA4 inhibitors, the inventors performed a molecular docking analysis using a small molecule library. […] Their ability in inhibiting EphA4 inhibiting the EphA4-dependent growth cone collapse using cultured hippocampal neurons was performed.

NMDA receptor = conditions: subsequent study; cited from earlier work
[3] = In vitro stability assay in mouse serum (UPLC-MS/MS); format: in vitro ADME; conditions: 3 μM, over the 360-min incubation period
APP/PS1 mutant mice = test: HFS-induced hippocampal LTP in WT and APP/PS1 mice after in vivo treatment; parameters: species or system mouse; conditions: Rhy oral 50 mg·kg−1·day−1 for 3 weeks
Description: APP/PS1 double-transgenic mice were obtained from Jackson Laboratory (B6C3-Tg[APPswe, PSEN1dE9]85Dbo/J)^66. These mice were generated by incorporating a human/murine APP construct bearing the Swedish double mutation and the exon-9-deleted PSEN1 mutation (APPswe+PSEN1/dE9). APP transgenic mice (Tg2576) expressing a double mutant of human AβPP (Lys^670→Asn^670, Met^671→Leu^671) were also used^31. Both sexes were used for experiments, and all mice used in this study were produced by the Animal Care Facility of The Hong Kong University of Science and Technology. The genotype was confirmed by polymerase chain reaction analysis of tail biopsies. Four to five mice of the same sex were housed in a cage with food and water ad libitum with a 12-hour light/dark cycle.
To investigate the effect of blocking EphA4 signaling by KYL peptide in AD mice, 4-5-month-old AD transgenic mice were implanted with Alzet mini-osmotic pumps, model 1004, pumping its contents at 0.11 μL/h for 28 days. Pumps were loaded with either 0.23 μg/μL KYL peptide (17 μg) or vehicle solvent in artificial cerebrospinal fluid (CSF). The mini-osmotic pumps were adjusted intracerebroventricularly in the right hemisphere. EphA4 in the CA1 regions of APP/PS1 mice was knocked down by injecting vesicular stomatitis virus glycoprotein G-pseudotyped lentiviral particles with pFUGW-shEphA4 bilaterally into the corresponding regions as described previously^58.
For LTP recordings, mouse brains were immediately dissected after sacrifice and soaked in ice-cold 95% O2/5% CO2 (aCSF)^58. Brain slices (300 μm thick) were prepared using a vibrating tissue slicer (HM650V; Thermo), and soaked in oxygenated buffer for 2 h at 32° C. […] For treatment with EphA4 inhibitors, the slices were pretreated with peptides or chemicals for 1 h before application of Aβ. fEPSPs were recorded using a MED64 multichannel recording system, and the data were collected from the dendritic layer of area CA1 at a sampling rate of 10 kHz. For each slice, the baseline stimulus intensity was set at the level that elicited ˜50% of the maximum fEPSP response determined according to the input-output curve. […] The magnitude of LTP was quantified as a percentage change in the fEPSP slope (10%-90%) taken during the 60-min interval after LTP induction.
WT and APP/PS1 mutant (Tg) mice were orally administered with corylin ([…]) by daily gavage for 3-4 weeks prior to LTP measurements. LTP induced by 3 trains of HFS (100 Hz for 1 s delivered 30 s apart) in the CA1 region of the SC pathway of the hippocampus was measured. The magnitude of LTP was quantified as the percentage change in the fEPSP slope (10-90%) taken during the 60-min interval after LTP induction.

T2 sequence (Q03137 20-986): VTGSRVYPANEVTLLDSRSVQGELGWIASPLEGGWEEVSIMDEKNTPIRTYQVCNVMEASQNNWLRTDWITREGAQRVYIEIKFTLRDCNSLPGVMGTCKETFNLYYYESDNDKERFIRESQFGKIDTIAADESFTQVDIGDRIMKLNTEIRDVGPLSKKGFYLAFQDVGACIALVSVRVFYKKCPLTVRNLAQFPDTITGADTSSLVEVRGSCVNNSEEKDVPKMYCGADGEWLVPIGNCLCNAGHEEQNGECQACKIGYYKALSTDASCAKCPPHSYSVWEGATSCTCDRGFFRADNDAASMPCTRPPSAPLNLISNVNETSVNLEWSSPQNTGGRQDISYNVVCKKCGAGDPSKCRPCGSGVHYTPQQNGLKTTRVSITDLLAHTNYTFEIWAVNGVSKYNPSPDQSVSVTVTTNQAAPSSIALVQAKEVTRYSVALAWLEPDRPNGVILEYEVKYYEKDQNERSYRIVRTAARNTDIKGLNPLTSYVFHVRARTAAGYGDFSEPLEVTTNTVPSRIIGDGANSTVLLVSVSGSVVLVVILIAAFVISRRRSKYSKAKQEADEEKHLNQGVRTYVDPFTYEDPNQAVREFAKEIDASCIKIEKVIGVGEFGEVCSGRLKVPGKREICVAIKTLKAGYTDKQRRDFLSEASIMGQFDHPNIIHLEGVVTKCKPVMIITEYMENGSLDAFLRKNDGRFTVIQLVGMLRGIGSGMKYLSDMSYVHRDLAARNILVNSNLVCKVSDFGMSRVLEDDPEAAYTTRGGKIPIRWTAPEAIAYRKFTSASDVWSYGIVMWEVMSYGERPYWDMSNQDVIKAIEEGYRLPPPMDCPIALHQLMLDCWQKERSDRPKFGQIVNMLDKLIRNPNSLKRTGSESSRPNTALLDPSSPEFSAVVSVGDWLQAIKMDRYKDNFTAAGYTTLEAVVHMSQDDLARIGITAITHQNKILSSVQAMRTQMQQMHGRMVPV
T1 sequence (P54764 20-547 limits assumed): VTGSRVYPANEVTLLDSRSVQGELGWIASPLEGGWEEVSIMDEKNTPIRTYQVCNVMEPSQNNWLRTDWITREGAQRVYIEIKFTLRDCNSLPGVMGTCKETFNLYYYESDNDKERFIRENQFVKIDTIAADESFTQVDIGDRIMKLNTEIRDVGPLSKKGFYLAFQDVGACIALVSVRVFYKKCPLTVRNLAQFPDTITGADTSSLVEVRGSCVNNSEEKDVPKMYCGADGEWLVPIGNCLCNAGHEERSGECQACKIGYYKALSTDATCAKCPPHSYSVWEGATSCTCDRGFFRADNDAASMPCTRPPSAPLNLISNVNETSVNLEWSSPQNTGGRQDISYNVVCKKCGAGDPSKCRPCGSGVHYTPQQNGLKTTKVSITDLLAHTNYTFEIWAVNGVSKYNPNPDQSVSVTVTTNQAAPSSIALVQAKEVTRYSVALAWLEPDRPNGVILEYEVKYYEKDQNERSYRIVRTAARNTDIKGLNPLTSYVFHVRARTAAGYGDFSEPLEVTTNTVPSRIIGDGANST

## CC[C@H]1CN2CC[C@]3(C(=O)Nc4ccccc43)[C@@H]2C[C@@H]1/C(=C\OC)C(=O)OC [Rhy, methyl (7β,16E,20α)-16-(methoxymethylene)-2-oxocorynoxan-17-oate]
[1]
  binding to the extracellular domain of EphA4 (pull-down, words): binds the extracellular domain of EphA4
EphA4 (HT-22 cells)
  binding of ephrin-A1 to HT-22 cells: reduced the binding of ephrin-A1 to HT-22 cells; also recorded: reduces the binding of ephrin-A1 to the surface of HT22 cells
[2]
  ephrin-A1-stimulated growth cone collapse: reduced; also recorded: inhibited ephrin-A1-stimulated growth cone collapse
NMDA receptor
  binding to NMDA receptor: neither binds to NMDA receptor
[3]
  reduction of Rhy concentration in serum: ~20%
APP/PS1 mutant mice; APP/PS1 (Tg) mice, Tg control 147.6±3.5%
  mean fEPSP slope, last 10 min after LTP induction: 198.1±8.9%
APP/PS1 mutant mice; WT mice, WT control 194.0±7.0%
  mean fEPSP slope, last 10 min after LTP induction: 180.5±7.7%
